Data on 32 molecules can be found in ChEMBL document CHEMBL6078670, “Discovery of a potent and selective TRPC3 antagonist with neuroprotective effects” (Bioorg Med Chem, 2025).

Data set [1] has as its target T1, Short transient receptor potential channel 3 (Homo sapiens) (UniProt Q13507).
T1 sequence (whole entry): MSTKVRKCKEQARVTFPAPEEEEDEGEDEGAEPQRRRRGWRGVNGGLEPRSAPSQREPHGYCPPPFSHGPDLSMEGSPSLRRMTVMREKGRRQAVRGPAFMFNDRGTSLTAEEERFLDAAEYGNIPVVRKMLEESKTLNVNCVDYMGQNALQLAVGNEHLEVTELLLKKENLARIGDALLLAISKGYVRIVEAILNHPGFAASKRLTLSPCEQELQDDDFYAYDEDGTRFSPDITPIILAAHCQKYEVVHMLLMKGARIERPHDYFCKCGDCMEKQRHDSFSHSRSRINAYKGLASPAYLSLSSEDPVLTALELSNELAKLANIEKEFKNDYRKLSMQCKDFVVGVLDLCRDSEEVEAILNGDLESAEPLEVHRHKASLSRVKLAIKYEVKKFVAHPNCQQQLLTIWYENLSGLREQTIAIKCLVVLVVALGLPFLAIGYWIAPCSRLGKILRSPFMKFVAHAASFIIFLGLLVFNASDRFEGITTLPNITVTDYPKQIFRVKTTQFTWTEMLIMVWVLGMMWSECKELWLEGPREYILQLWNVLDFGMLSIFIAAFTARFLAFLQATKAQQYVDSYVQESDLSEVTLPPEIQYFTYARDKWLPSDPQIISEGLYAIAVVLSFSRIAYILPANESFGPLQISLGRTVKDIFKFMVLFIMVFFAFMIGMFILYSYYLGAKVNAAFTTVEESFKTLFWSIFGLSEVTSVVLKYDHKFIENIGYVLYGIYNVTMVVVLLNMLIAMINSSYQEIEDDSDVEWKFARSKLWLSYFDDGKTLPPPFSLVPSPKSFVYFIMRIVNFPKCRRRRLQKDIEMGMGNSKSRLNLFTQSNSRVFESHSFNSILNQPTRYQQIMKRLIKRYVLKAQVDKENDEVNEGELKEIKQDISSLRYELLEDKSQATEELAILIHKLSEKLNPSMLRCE
Put plainly: Antagonist activity at human TRPC3 expressed in HEK293 cells assessed as inhibition of carbachol-induced activity at 10 uM measured after 48 hrs by Whole-cell patch clamp electrophysiology relative to control. Format: cell-based. Background: Patch clamp records ionic current or voltage across a cell membrane.

Data set [2] concerns the target T2, Short transient receptor potential channel 7 (Homo sapiens) (UniProt Q9HCX4).
T2 sequence (whole entry): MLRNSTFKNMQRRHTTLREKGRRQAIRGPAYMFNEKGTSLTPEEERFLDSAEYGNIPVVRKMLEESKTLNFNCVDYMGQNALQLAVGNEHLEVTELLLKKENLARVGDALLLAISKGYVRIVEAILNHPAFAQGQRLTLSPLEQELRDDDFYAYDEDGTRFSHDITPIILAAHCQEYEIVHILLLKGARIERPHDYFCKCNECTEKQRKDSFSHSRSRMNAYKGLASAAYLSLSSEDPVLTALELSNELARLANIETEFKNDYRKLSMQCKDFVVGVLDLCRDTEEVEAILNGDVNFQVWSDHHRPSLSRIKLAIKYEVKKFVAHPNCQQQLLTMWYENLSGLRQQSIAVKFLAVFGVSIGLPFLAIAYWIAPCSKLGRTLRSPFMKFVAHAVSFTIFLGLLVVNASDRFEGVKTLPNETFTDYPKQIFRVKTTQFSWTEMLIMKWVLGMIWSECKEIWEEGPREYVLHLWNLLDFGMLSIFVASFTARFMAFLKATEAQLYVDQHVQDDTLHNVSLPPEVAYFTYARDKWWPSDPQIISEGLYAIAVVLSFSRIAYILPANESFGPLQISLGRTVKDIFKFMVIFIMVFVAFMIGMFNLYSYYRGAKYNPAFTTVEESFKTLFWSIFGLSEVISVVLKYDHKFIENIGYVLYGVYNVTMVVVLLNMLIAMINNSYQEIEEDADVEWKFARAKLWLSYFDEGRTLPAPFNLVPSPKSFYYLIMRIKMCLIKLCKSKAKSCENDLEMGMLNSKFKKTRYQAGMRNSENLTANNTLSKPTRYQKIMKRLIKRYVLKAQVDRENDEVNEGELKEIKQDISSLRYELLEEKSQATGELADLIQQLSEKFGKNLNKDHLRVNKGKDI
As to the kind of experiment: Antagonist activity at human TRPC7 expressed in HEK293 cells assessed as inhibition of carbachol-induced activity at 10 uM measured after 48 hrs by Whole-cell patch clamp electrophysiology. Format: cell-based.

Data set [3] deals with Short transient receptor potential channel 1 (Mus musculus) (UniProt Q61056). Put plainly: Antagonist activity at mouse TRPC1 expressed in HEK293 cells assessed as inhibition of carbachol-induced activity at 10 uM measured after 48 hrs by Whole-cell patch clamp electrophysiology. Format: cell-based.
Chain of Short transient receptor potential channel 1 (Mus musculus) (Q61056 whole entry): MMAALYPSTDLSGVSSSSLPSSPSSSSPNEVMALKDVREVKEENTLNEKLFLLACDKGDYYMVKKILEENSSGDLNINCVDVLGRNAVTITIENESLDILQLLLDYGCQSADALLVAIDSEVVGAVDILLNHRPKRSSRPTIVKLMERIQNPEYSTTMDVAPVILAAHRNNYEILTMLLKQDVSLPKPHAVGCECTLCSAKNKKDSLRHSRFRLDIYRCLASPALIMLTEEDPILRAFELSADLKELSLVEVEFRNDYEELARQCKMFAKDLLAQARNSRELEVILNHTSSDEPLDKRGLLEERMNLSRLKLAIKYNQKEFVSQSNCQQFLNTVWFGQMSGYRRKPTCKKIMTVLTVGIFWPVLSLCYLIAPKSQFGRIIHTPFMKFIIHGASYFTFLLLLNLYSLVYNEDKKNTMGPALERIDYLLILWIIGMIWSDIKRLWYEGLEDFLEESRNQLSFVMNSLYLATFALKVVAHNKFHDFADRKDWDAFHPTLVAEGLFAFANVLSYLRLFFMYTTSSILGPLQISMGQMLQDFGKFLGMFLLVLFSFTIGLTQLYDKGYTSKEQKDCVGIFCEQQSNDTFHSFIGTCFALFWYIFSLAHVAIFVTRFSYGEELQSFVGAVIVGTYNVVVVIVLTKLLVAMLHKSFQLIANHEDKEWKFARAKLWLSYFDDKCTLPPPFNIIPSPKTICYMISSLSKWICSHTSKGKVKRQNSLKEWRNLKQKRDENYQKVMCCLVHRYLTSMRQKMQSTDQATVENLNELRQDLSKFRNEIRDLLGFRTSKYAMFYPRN
In a further data set the test system is Hippocampal neurone. As to the kind of experiment: Rescuing beta-amyloid induced neuronal cell damage in Sprague-Dawley rat primary hippocampal cell culture (composed of 60% primary neuron, 20% microglia and 20% astrocyte) assessed as decrease in soluble oligomeric Abeta-containing media (7PA2 cells) induced synaptic toxicity at 250 nM. Format: functional, cell-based.

Data set [4] can be described thus: Kinetic solubility of the compound in ph 7.4 PBS buffer measured after 24 hrs shaken by HPLC and UPLC system. Format: physicochemical. The conditions noted are these: read-out: Kinetic_solubility.
Data set [5] concerns the target Transient receptor potential cation channel subfamily M member 8 (Rattus norvegicus) (UniProt Q8R455). As to the kind of experiment: Antagonist activity at rat TRPM8 expressed in HEK293 cells assessed as inhibition of carbachol-induced activity at 10 uM measured after 48 hrs by Whole-cell patch clamp electrophysiology. It counts as cell-based.
For data set [6], the target named is T3, Short transient receptor potential channel 6 (Homo sapiens) (UniProt Q9Y210).
T3 sequence (whole entry): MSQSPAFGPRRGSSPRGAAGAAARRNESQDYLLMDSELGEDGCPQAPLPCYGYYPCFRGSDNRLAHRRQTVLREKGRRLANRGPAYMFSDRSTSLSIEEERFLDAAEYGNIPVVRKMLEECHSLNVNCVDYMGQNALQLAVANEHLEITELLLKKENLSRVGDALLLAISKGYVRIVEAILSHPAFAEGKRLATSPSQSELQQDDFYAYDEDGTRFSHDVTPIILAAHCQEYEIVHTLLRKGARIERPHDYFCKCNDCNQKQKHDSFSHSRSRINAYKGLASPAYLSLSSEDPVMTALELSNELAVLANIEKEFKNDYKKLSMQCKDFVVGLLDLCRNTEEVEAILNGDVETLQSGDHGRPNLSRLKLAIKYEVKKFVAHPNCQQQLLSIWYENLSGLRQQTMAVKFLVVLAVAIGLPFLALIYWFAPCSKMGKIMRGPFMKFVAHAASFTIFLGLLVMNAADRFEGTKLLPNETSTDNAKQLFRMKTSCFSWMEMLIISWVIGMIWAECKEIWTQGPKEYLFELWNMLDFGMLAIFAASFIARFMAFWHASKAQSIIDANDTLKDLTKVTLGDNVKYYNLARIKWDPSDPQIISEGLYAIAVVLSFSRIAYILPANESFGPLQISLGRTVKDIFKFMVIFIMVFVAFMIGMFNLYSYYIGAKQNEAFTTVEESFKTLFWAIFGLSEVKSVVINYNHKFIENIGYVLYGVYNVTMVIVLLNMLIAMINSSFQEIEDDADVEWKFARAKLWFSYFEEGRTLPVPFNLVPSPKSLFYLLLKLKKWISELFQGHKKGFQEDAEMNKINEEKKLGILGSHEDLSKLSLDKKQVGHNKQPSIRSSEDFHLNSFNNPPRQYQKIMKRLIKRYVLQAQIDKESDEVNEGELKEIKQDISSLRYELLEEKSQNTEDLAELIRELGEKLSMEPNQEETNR
As to the kind of experiment: Antagonist activity at human TRPC6 expressed in HEK293 cells assessed as inhibition of carbachol-induced activity at 10 uM measured after 48 hrs by Whole-cell patch clamp electrophysiology. Format: cell-based.

In data set [7] the target is Short transient receptor potential channel 1 (Rattus norvegicus) (UniProt Q9QX01). As to the kind of experiment: Antagonist activity at rat TRPC1 expressed in HEK293 cells assessed as inhibition of carbachol-induced activity at 10 uM measured after 48 hrs by Whole-cell patch clamp electrophysiology. Format: cell-based.
Chain of Short transient receptor potential channel 1 (Rattus norvegicus) (Q9QX01 whole entry): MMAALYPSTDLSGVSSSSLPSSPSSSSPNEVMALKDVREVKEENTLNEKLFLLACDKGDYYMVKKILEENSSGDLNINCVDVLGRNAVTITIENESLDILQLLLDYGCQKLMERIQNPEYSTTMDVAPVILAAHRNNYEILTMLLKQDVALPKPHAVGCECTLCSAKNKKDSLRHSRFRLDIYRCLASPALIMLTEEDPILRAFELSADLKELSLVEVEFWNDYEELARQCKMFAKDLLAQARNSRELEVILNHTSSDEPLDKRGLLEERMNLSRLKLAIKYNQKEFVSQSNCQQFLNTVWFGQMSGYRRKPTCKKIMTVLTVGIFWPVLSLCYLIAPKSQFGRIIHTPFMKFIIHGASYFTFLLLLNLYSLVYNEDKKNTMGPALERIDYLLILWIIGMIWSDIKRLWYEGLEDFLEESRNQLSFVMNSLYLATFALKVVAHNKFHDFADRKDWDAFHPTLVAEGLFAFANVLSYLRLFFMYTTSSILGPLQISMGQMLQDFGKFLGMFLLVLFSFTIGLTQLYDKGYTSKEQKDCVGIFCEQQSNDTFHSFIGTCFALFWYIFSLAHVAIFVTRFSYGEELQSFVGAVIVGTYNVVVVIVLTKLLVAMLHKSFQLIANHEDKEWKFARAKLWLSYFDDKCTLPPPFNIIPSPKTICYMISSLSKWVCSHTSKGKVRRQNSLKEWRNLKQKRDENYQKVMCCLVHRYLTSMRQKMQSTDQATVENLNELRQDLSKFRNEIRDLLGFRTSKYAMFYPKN
The nature of data set [8]: Cytotoxicity against Sprague-Dawley rat primary hippocampal cells at 100 nM. The conditions noted are these: hippocampal neurone, 0.1 µM. It counts as toxicity, cell-based.

In brackets after ≈: the same amount, converted by molar mass. Activity calls are given as the source filed them. The rule behind the calls is not given here.

For orientation: inhibition means the drop in the measured response relative to a control, in per cent.

Chain of Transient receptor potential cation channel subfamily M member 8 (Rattus norvegicus) (Q8R455 whole entry, looked up): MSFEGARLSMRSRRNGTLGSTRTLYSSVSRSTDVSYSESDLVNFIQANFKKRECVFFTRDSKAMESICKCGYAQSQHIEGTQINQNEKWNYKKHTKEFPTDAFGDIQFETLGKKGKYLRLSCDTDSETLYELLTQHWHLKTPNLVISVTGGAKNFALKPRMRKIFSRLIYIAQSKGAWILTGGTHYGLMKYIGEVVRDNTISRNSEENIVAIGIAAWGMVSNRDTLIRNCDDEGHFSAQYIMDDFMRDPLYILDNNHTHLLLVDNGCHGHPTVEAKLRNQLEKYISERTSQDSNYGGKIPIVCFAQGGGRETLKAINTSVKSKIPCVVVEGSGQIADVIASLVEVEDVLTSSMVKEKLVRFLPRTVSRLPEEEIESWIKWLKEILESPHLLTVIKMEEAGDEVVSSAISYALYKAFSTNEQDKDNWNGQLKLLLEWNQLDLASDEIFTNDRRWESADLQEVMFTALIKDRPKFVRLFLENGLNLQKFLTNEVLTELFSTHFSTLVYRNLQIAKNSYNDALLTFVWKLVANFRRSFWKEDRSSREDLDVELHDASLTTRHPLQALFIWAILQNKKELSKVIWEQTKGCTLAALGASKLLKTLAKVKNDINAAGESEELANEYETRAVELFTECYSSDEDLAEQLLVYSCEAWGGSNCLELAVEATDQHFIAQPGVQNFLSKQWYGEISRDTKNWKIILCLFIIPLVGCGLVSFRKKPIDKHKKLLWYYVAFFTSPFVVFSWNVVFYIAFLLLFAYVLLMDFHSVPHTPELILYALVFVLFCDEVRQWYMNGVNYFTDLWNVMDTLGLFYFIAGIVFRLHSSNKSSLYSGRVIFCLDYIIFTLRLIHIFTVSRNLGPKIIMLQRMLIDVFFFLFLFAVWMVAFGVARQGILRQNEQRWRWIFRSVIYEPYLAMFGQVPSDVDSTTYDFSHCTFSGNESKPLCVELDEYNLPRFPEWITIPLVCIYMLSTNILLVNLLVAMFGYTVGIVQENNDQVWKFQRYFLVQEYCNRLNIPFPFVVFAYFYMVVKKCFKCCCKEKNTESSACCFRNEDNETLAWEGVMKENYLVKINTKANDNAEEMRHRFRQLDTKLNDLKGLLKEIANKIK

As to `CCCNC(=O)c1cnn(-c2ccc(-n3ccc(Cl)c(Cl)c3=O)cc2)c1C(F)(F)F`, in data set [1], the inhibition is less than 80%. For `CCOCc1cnn(-c2ccc(-n3ccc(Cl)c(Cl)c3=O)cc2)c1C(F)(F)F`, in data set [1], the inhibition is less than 80%. For `CC(C)CNC(=O)c1cnn(-c2ccc(-n3ccc(Cl)c(Cl)c3=O)cc2)c1C(F)(F)F`, in data set [1] (filed as antagonist), the inhibition was more than 90%. On to `CCNC(=O)c1cnn(-c2ccc(-n3ccc(Cl)c(Cl)c3=O)cc2)c1S(C)(=O)=O`, for which the inhibition in data set [1] is less than 80%. As to `CCNC(=O)c1ncn(-c2ccc(-n3ccc(Cl)c(Cl)c3=O)cc2)c1C(F)(F)F`, the inhibition in data set [1] (filed as antagonist) was more than 90%. Same read-out and setting: to `CC(=O)c1cnn(-c2ccc(-n3ccc(Cl)c(Cl)c3=O)cc2)c1C(F)(F)F` belongs more than 80%.

For `O=C(NC1CC1)c1cnn(-c2ccc(-n3ccc(Cl)c(Cl)c3=O)cc2)c1C(F)(F)F`, the inhibition in [1] is less than 80%.

As for `CCN(CC)C(=O)c1cnn(-c2ccc(-n3ccc(Cl)c(Cl)c3=O)cc2)c1C(F)(F)F`, the inhibition in data set [1] (filed as antagonist) is more than 90%.

As for `CCNC(=O)c1cnn(-c2ccc(-n3ccc(O)c(Cl)c3=O)cc2)c1C(F)(F)F`, in data set [1] (filed as antagonist), the inhibition was more than 90%. Turning to `CCNC(=O)c1cnn(-c2ccc(-n3ccc(C(F)(F)F)c(Cl)c3=O)cc2)c1C(F)(F)F`, in [1] (filed as antagonist), the inhibition is more than 80%. The same measure, in the same setting: to `CCNC(=O)c1nn(-c2ccc(-n3ccc(Cl)c(Cl)c3=O)cc2)nc1C(F)(F)F` belongs more than 80%; to `CNC(=O)c1cnn(-c2ccc(-n3ccc(Cl)c(Cl)c3=O)cc2)c1C(F)(F)F`, more than 80%.

Turning to `CCNC(=O)c1cnn(-c2ccc(-n3ccc(Cl)c(Cl)c3=O)cc2)c1C(F)(F)F`, the inhibition in data set [1] (filed as antagonist) was more than 80%. Besides, the result in data set [2], in data set [3], in [5], in [6] and in data set [7] was inactive. Besides, the outcome in the data set with Hippocampal neurone was Active. In [4], the solubility kinetic at 24 h was 144 µM (≈ 64.1 µg/mL). Besides, in data set [8], the Activity entry is given as “Non-toxic”.

In the case of `CCCCNC(=O)c1cnn(-c2ccc(-n3ccc(Cl)c(Cl)c3=O)cc2)c1C(F)(F)F`, in data set [1], the inhibition is less than 80%. In the case of `CCCC(=O)c1cnn(-c2ccc(-n3ccc(Cl)c(Cl)c3=O)cc2)c1C(F)(F)F`, the inhibition in data set [1] is less than 80%. As for `CCNC(=O)c1nnn(-c2ccc(-n3ccc(Cl)c(Cl)c3=O)cc2)c1C(F)(F)F`, the inhibition in data set [1] was less than 80%. On to `CCNC(=O)c1cnn(-c2ccc(-n3ccc(Cl)c(Cl)c3=O)cc2)c1Cl`, for which, in data set [1], the inhibition was less than 80%.

Consider `CCN(CC)Cc1cnn(-c2ccc(-n3ccc(Cl)c(Cl)c3=O)cc2)c1C(F)(F)F`, for which, in data set [1] (filed as antagonist), the inhibition is more than 80%. As to `CCNC(=O)c1cn(-c2ccc(-n3ccc(Cl)c(Cl)c3=O)cc2)nc1C(F)(F)F`, in [1] (filed as antagonist), the inhibition is more than 97%. With `CCc1nnc(-c2cnn(-c3ccc(-n4ccc(Cl)c(Cl)c4=O)cc3)c2C(F)(F)F)o1`, the inhibition in [1] (filed as antagonist) was more than 90%. `O=C(c1cnn(-c2ccc(-n3ccc(Cl)c(Cl)c3=O)cc2)c1C(F)(F)F)N1CCCC1`: the inhibition in data set [1] (filed as antagonist) was more than 80%. For the molecule `CCNC(=O)c1cnn(-c2ccc(-n3ccc(Cl)c(Cl)c3=O)cc2)c1C#N`, the inhibition in data set [1] (filed as antagonist) was more than 80%. For the molecule `CCNC(=O)c1cnn(-c2ccc(-n3ccc(Cl)c(Cl)c3=O)cc2)c1`, the inhibition in [1] (filed as antagonist) is more than 97%. Take `CCNC(=O)c1cnn(-c2ccc(-n3ccc(Cl)c(Cl)c3=O)cn2)c1C(F)(F)F`: the inhibition in [1] was less than 80%. Consider `CCNC(=O)c1cnn(-c2ccc(-n3ccc(Cl)c(Br)c3=O)cc2)c1C(F)(F)F`, for which the inhibition in [1] is less than 80%. Take `CCOC(=O)c1cnn(-c2ccc(NC(=O)C(Cl)=C(Cl)Cl)cc2)c1C(F)(F)F`: the inhibition in data set [1] (filed as antagonist) is more than 80%. In addition, the result in data set [2], in data set [3], in data set [5], in [6] and in [7] was inactive. For the molecule `CCC(=O)Nc1cnn(-c2ccc(-n3ccc(Cl)c(Cl)c3=O)cc2)c1C(F)(F)F`, in data set [1] (filed as antagonist), the inhibition is more than 80%. Regarding `CS(=O)(=O)c1cnn(-c2ccc(-n3ccc(Cl)c(Cl)c3=O)cc2)c1C(F)(F)F`, the inhibition in data set [1] was less than 80%. Turning to `CC(C)NC(=O)c1cnn(-c2ccc(-n3ccc(Cl)c(Cl)c3=O)cc2)c1C(F)(F)F`, the inhibition in data set [1] was less than 80%. `NC(=O)c1cnn(-c2ccc(-n3ccc(Cl)c(Cl)c3=O)cc2)c1C(F)(F)F`: the inhibition in [1] was less than 80%. Still for that read-out and setting: to `CCNC(=O)c1sc(-c2ccc(-n3ccc(Cl)c(Cl)c3=O)cc2)nc1C(F)(F)F` belongs less than 80%; to `CCNC(=O)c1cnn(-c2ccc(-n3ccc(OC)c(Cl)c3=O)cc2)c1C(F)(F)F`, less than 80%.
